Data reported in patent US20240124610A1, “METHODS FOR TREATING HER2-NEGATIVE OR HER2-LOW CANCER” (Washington University, priority 2022, published 2024).
Entries after “also recorded” stand apart in the source; their conditions may differ.

Experiments:
breast cancer patients = assay: Survival analysis of tamoxifen-treated breast cancer patients by BCAR4 expression; assay type: in vivo, human
Source text: FIG. 25 is a survival curve showing BCAR4-positive patients (blue) have worse outcome when treated with tamoxifen in accordance with the present disclosure.
BCAR4+ is categorized as the top 20% and BCAR4− as the bottom 80%.

[1] = test system: MCF7 (ER+/HER2-negative) cells expressing full length BCAR4 or LITAF-BCAR4 gene fusion; assay: Tamoxifen treatment of BCAR4-overexpressing breast cancer cells (FIG. 37); assay type: cell-based; details: in vitro
Source text: FIG. 37 is a graph showing BCAR4 gene fusion-expressing cells are resistance to Tamoxifen treatment in breast cancer in accordance with the present disclosure. MCF7 (ER+/HER2-negative) overexpressing cell lines expressing full length BCAR4 (B4) or LITAF-BCAR4 gene fusion (LB) were used.
BCAR4 gene fusion-expressing cells are resistant to Tamoxifen treatment in breast cancer (see e.g., FIG. 37). It is known that full length BCAR4 is resistant to tamoxifen therapy, but no one has shown that BCAR4 gene fusions cause resistance. BCAR4-fusions express only the 4th exon of BCAR4 gene.

[2] = test system: patients expressing BCAR4; details: letrozole (AI treatment); public data GSE41994; FIG. 39; cited from earlier work
[3] = test system: ZR751 cells overexpressing BCAR4 full length or gene fusions; assay: Cell viability under lapatinib treatment (FIG. 24); assay type: cell-based; details: ZR751 cells overexpressing BCAR4 full length or gene fusions vs control cells without BCAR4, increased lapatinib
[4] = test system: HER2/HER3 signaling in ZR-75-1 cells; assay: Western blot of HER3/AKT signaling in lapatinib-treated cells (FIG. 29D); assay type: cell-based; design: dose or concentration left out as unconfirmed; details: ZR-75-1 cells expressing full length BCAR4 or gene fusions
Procedure: Antibodies against FLAG (2368S; RRID:AB_2217020, 1:1000; Cell Signaling Technology), actin (3700S; RRID:AB_2242334, 1:10,000; Cell Signaling Technology), Goat anti-mouse or anti-rabbit peroxidase-conjugated secondary antibodies (Thermo Fisher Scientific) were used for experiments. Protein samples were prepared with ice-cold RIPA lysis buffer (25 mmol/L Tris pH7.5, 1% NP40, 0.1% SDS, 150 mmol/L NaCl, 0.5% sodium deoxycholate, and 1× Halt Protease Inhibitor Cocktail; Thermo Fisher Scientific). Lysate was subjected to a short sonication and then clarified by centrifugation at maximum speed, 4° C. for 10 minutes. Protein concentration was determined with the DC Protein Assay (BioRad). Samples were diluted in loading buffer, boiled, and equal protein concentrations (20-30 mg) loaded and resolved by SDS-polyacrylamide gel electrophoresis in 12% or 4% to 12% Bolt Bis-Tris precast gels (Invitrogen). Gels were transferred at 60° C. for 1 hour to a nitrocellulose membrane (BioRad). Proteins were detected with specific antibodies and visualized and quantified on the ChemDoc MP Imaging System (BioRad) using secondary antibodies and Clarity Western ECL Substrate (Thermo Fisher Scientific).

BCAR4-expressing cells = assay: Cell growth under lapatinib treatment (FIG. 42); assay type: cell-based; details: BCAR4-expressing cells treated with lapatinib
Source text: In breast cancer HER3 preferentially binds to HER2 to form a heterodimer.

## CC/C(=C(\c1ccccc1)c1ccc(OCCN(C)C)cc1)c1ccccc1 [tamoxifen]
Breast cancer patients; tamoxifen only treatment, TCGA cohort (n=186), FIG. 35
  outcome of BCAR4-high patients: worse outcomes
Breast cancer patients; tamoxifen treatment, GSE6532 cohort, FIG. 36
  distant metastasis free survival of BCAR4-high patients: worse distant metastasis free survival
Breast cancer patients; tamoxifen, microarray data of early-stage breast cancer patients, FIG. 25
  outcome of early stage BCAR4-positive vs BCAR4-negative patients: poor outcome
[1]
  response to Tamoxifen treatment: resistant

## N#Cc1ccc(C(c2ccc(C#N)cc2)n2cncn2)cc1 [letrozole]
[2]
  Progression Free Survival of top 25% of patients expressing BCAR4: worse Progression Free Survival

## CS(=O)(=O)CCNCc1ccc(-c2ccc3ncnc(Nc4ccc(OCc5cccc(F)c5)c(Cl)c4)c3c2)o1 [lapatinib]
[3]
  cell viability: decreased cell viability
[4]
  phosphorylation of HER3 and downstream activation of AKT: attenuated these changes; also recorded: inhibited
[4]; listed as Lapatinib
  phosphorylation of HER3 and downstream activation of AKT: lose HER3 activation
BCAR4-expressing cells
  cell growth: decreased growth
